# Measurements as given in ChEMBL document CHEMBL1697723, “A predictive ligand-based Bayesian model for human drug-induced liver injury” (Drug Metab Dispos, 2010).
# System: Hepatotoxicity
# Experiment: Human drug-induced liver injury (DILI) modelling dataset from Ekins et al
# Details: not given
row,Compound,Hepatotoxicity
1,CC[N+](C)(C)c1cccc(O)c1.[Cl-] [EDROPHONIUM CHLORIDE],DILI negative (training set)
2,CN1c2ccccc2C(NCCCCCCC(=O)O)c2ccc(Cl)cc2S1(=O)=O (stereo unspecified) [TIANEPTINE],DILI positive (training set)
3,Cc1ccc(C)c(OCCCC(C)(C)C(=O)O)c1 [GEMFIBROZIL],DILI positive (training set)
4,C[C@H]1C[C@H]2[C@@H]3CCC4=CC(=O)C=C[C@]4(C)[C@@]3(F)[C@@H](O)C[C@]2(C)[C@@]1(O)C(=O)CO [BETAMETHASONE],DILI negative (training set)
5,CCN(CC)C(=O)/C(C#N)=C/c1cc(O)c(O)c([N+](=O)[O-])c1 [ENTACAPONE],DILI negative (test set)
6,CCCCC(=O)O [VALERIC ACID],DILI negative (test set)
7,CC1(C)S[C@@H]2[C@H](NC(=O)[C@H](N)c3ccc(O)cc3)C(=O)N2[C@H]1C(=O)O [AMOXICILLIN],DILI negative (test set)
8,COc1ccccc1Oc1c(NS(=O)(=O)c2ccc(C(C)(C)C)cc2)nc(-c2ncccn2)nc1OCCO [BOSENTAN],DILI positive (test set)
9,Cc1cnc(NC(=O)C2=C(O)c3ccccc3S(=O)(=O)N2C)s1 [MELOXICAM],DILI negative (test set)
10,Nc1ccc(C(=O)[O-])cc1.[K+] [AMINOBENZOATE POTASSIUM],DILI negative (training set)
11,CN(C)CCC(c1ccc(Br)cc1)c1ccccn1.O=C(O)/C=C\C(=O)O (stereo unspecified) [BROMPHENIRAMINE MALEATE],DILI negative (training set)
12,CCOC(=O)c1ncn2c1CN(C)C(=O)c1cc(F)ccc1-2 [FLUMAZENIL],DILI negative (training set)
13,CC(C(=O)[O-])c1cccc(Oc2ccccc2)c1.[Na+] (stereo unspecified) [FENOPROFEN SODIUM],DILI positive (training set)
14,CC(O)(CS(=O)(=O)c1ccc(F)cc1)C(=O)Nc1ccc(C#N)c(C(F)(F)F)c1 (stereo unspecified) [BICALUTAMIDE],DILI positive (training set)
15,Cc1scc2c1N(C(=O)CN1CCN(C)CC1)c1ccccc1NC2=O [TELENZEPINE],DILI negative (test set)
16,CO/N=C(/C(=O)N[C@@H]1C(=O)N2C(C(=O)[O-])=C(CSc3nc(=O)c(O)nn3C)CS[C@H]12)c1csc(N)n1.[Na+],DILI positive (test set)
17,C[C@@H]1[C@H](O)[C@@H](C)/C=C/C=C/C=C/C=C/C=C/C=C/C=C/[C@H](O[C@@H]2O[C@H](C)[C@@H](O)[C@H](N)[C@@H]2O)C[C@@H]2O[C@](O)(C[C@@H](O)C[C@@H](O)[C@H](O)CC[C@@H](O)C[C@@H](O)CC(=O)O[C@H]1C)C[C@H](O)[C@H]2C(=O)O [AMPHOTERICIN B],DILI negative (test set)
18,CN[C@@H](C)[C@@H](O)c1ccccc1.Cl [PSEUDOEPHEDRINE HYDROCHLORIDE],DILI negative (training set)
19,Cc1ccc(S(=O)(=O)NC(=O)NN2CC3CCCC3C2)cc1 (stereo unspecified) [GLICLAZIDE],DILI negative (training set)
20,CN(CCOc1ccc(CC2SC(=O)NC2=O)cc1)c1ccccn1 (stereo unspecified) [ROSIGLITAZONE],DILI negative (test set)
21,C=C1CC[C@H](O)C/C1=C/C=C1\CCC[C@]2(C)[C@@H]([C@H](C)CCCC(C)(C)O)CC[C@@H]12.O [CALCIFEDIOL],DILI positive (test set)
22,O=C1OCCN1/N=C/c1ccc([N+](=O)[O-])o1 [FURAZOLIDONE],DILI positive (training set)

row,Compound,Hepatotoxicity
1,Cc1ccccc1N1C(=O)c2cc(S(N)(=O)=O)c(Cl)cc2NC1C (stereo unspecified) [METOLAZONE],DILI positive (test set)
2,CC(C)(Oc1ccc(CCNC(=O)c2ccc(Cl)cc2)cc1)C(=O)O [BEZAFIBRATE],DILI negative (training set)
3,CN(C)/N=N/c1[nH]cnc1C(N)=O [DACARBAZINE],DILI positive (test set)
4,Cc1onc(-c2c(Cl)cccc2Cl)c1C(=O)N[C@@H]1C(=O)N2[C@@H]1SC(C)(C)[C@@H]2C(=O)[O-].O.[Na+] [DICLOXACILLIN SODIUM],DILI positive (test set)
5,"Clc1ccc(Cl)cc1 [1,4-DICHLOROBENZENE]",DILI positive (test set)
6,CC(=O)[C@H]1CC[C@H]2[C@@H]3CCC4=CC(=O)CC[C@]4(C)[C@H]3CC[C@]12C [PROGESTERONE],DILI positive (training set)
7,BISMUTH SUBSALICYLATE,DILI negative (test set)
8,CN1CCN2c3ccccc3Cc3ccccc3C2C1 (stereo unspecified) [MIANSERIN],DILI positive (test set)
9,Fc1ccc([C@@H]2CCNC[C@H]2COc2ccc3c(c2)OCO3)cc1 [PAROXETINE],DILI negative (training set)
10,COc1cccc(OC)c1C(=O)N[C@@H]1C(=O)N2[C@@H]1SC(C)(C)[C@@H]2C(=O)[O-].[Na+],DILI positive (training set)
11,CN1C(=O)OC(C)(C)C1=O [TRIMETHADIONE],DILI positive (training set)
12,CC1(c2ccccc2)Cc2cc(OCC(=O)O)c(Cl)c(Cl)c2C1=O (stereo unspecified) [INDACRINONE],DILI positive (test set)
13,Cc1nnc(NS(=O)(=O)c2ccc(N)cc2)s1 [SULFAMETHIZOLE],DILI positive (test set)
14,CC1=C(/C=C/C(C)=C/C=C/C(C)=C\C(=O)O)C(C)(C)CCC1 [ISOTRETINOIN],DILI positive (training set)
15,COCc1c(C(C)C)nc(C(C)C)c(/C=C/[C@@H](O)C[C@@H](O)CC(=O)O)c1-c1ccc(F)cc1 [CERIVASTATIN],DILI positive (test set)
16,N[C@@H]1[C@H]2CN(c3nc4c(cc3F)c(=O)c(C(=O)O)cn4-c3ccc(F)cc3F)C[C@@H]12 [TROVAFLOXACIN],DILI positive (training set)
17,Nc1nc2ncc(CNc3ccc(C(=O)N[C@@H](CCC(=O)O)C(=O)O)cc3)nc2c(=O)[nH]1 [FOLIC ACID],DILI negative (training set)
18,CC(C)(C)NCC(O)COc1cccc2c1CC(O)C(O)C2 (stereo unspecified) [NADOLOL],DILI negative (training set)
19,GALLIUM NITRATE HYDRATE,DILI negative (training set)
20,CO[C@H]1/C=C/O[C@@]2(C)Oc3c(C)c(O)c4c(O)c(c(/C=N/N5CCN(C)CC5)c(O)c4c3C2=O)NC(=O)/C(C)=C\C=C\[C@H](C)[C@H](O)[C@@H](C)[C@@H](O)[C@@H](C)[C@H](OC(C)=O)[C@@H]1C [RIFAMPIN],DILI negative (test set)
21,COc1ccc2c(C(=S)N(C)CC(=O)O)cccc2c1C(F)(F)F [TOLRESTAT],DILI positive (test set)

# Same assay, conditions: Liver
row,Compound,Hepatotoxicity
1,Cl.Clc1cccc(Cl)c1NC1=NCCN1 [CLONIDINE HYDROCHLORIDE],DILI positive (training set)
2,Cl.N[C@@H]1C[C@H]1c1ccccc1 [TRANYLCYPROMINE HYDROCHLORIDE],DILI negative (training set)
3,N#CC(C#N)=NNc1ccc(OC(F)(F)F)cc1,DILI positive (training set)
4,Nc1ccc(S(N)(=O)=O)cc1 [SULFANILAMIDE],DILI positive (test set)
5,CCN(CC)CC(=O)Nc1c(C)cccc1C [LIDOCAINE],DILI negative (training set)
6,CCCCc1oc2ccccc2c1C(=O)c1cc(I)c(OCCN(CC)CC)c(I)c1 [AMIODARONE],DILI positive (training set)
7,CC(C)c1cccc(C(C)C)c1O [PROPOFOL],DILI negative (test set)
8,CNCCCC12CCC(c3ccccc31)c1ccccc12 [MAPROTILINE],DILI negative (training set)
